US20230233519A1, “COMBINATION THERAPIES” (MEI Pharma, Inc., priority 2020, published 2023)

Legend:
[1] = tested on: MOLM-13 AML cells; test: Viable cells (annexin V negative and PI negative) by flow cytometry, MOLM-13; assay type: cell-based, human; details: MOLM-13, 24 hr, clinically achievable concentrations
Protocol: (§1) FIG. 2A depicts the percentage of viable MOLM-13 AML cells following treatment of MOLM-13 AML cell lines with venetoclax (VEN) and d-cis-3-(4-hydroxyphenyl)-4-(4-hydroxyphenyl)-8-methylchroman-7-ol (Compound A), alone or in combination, for 24 h and then subjected to Annexin V-FITC/PI staining and flow cytometry analysis. Viable cells (annexin V negative and PI negative) were gated. Viable cell counts from no drug treatment controls were set at 100%, and the rest of the samples were normalized to the no drug treatment controls. The data were presented as mean percent of viable cells from triplicates with standard errors.
AML cell lines used as described herein include MOLM-13, MV4-11, and THP-1. […]
(§2) Human adult AML cell lines (MOLM-13), human childhood AML cell lines (MV4-11 and THP-1), and cytarabine-resistant (araC-R) acute monocytic leukemia (AMoL) cell lines (U937) are treated with venetoclax and d-cis-3-(4-hydroxyphenyl)-4-(4-hydroxyphenyl)-8-methylchroman-7-ol (Compound A), alone or in combination, and are subject to flow cytometry analysis using Annexin V-fluorescein isothiocyanate (FITC)/propidium iodide (PI) Apoptosis Kit (Beckman Coulter, Brea, Calif.). Results are expressed as percent Annexin V-positive (Annexin V+) cells. […] The extent and direction of the antileukemic interaction between venetoclax and Compound A is determined by calculating the combination index (CI). […]

[2] = tested on: THP-1 childhood AML cells; test: Annexin V-FITC/PI apoptosis flow cytometry, THP-1; assay type: cell-based, human; details: THP-1, 24 h, clinically achievable concentrations
Protocol: (§3) AML cell lines used as described herein include MOLM-13, MV4-11, and THP-1. MOLM-13 cells are purchased from AddexBio (San Diego, Calif., USA). MV4-11 and THP-1 cell lines are purchased from the American Type Culture Collection (Manassas, Va., USA). The cell lines are cultured in RPMI 1640 with 10-20% fetal bovine serum (Thermo Fisher Scientific, Waltham, Mass., USA), 2 mM L-glutamine, 100 U/mL penicillin, and 100 μg/mL streptomycin. All cells are cultured in a 37° C. humidified atmosphere containing 5% CO2/95% air. The cell lines are authenticated at the Genomics Core at Karmanos Cancer Institute using the Power-Plex 16 System from Promega (Madison, Wis., USA). […]
as §2

[3] = tested on: THP-1 childhood AML cells; test: Viable cells (annexin V negative and PI negative) by flow cytometry, THP-1; assay type: cell-based, human; details: THP-1, 24 hr, clinically achievable concentrations
Protocol: as §1, with “FIG. 2C” for “FIG. 2A”, “viable THP-1 childhood” for “viable MOLM-13”, “of THP-1 childhood” for “of MOLM-13”, “24 h.” for “24 h”, “errors. […]” for “errors.”
as §2

[4] = tested on: cytarabine resistant (araC-R) U937 acute monocytic leukemia (AMoL) cells; test: Annexin V-FITC/PI apoptosis flow cytometry, araC-R U937; assay type: cell-based; details: araC-R U937, 24 h, clinically achievable concentrations
Protocol: Human adult AML cell lines (MOLM-13), human childhood AML cell lines (MV4-11 and THP-1), and cytarabine-resistant (araC-R) acute monocytic leukemia (AMoL) cell lines (U937) are treated with venetoclax and d-cis-3-(4-hydroxyphenyl)-4-(4-hydroxyphenyl)-8-methylchroman-7-ol (Compound A), alone or in combination, and are subject to flow cytometry analysis using Annexin V-fluorescein isothiocyanate (FITC)/propidium iodide (PI) Apoptosis Kit (Beckman Coulter, Brea, Calif.). Results are expressed as percent Annexin V-positive (Annexin V+) cells. For the AML/AMoL cell lines, experiments are performed three independent times in triplicate, and the data presented are from one representative experiment. The extent and direction of the antileukemic interaction between venetoclax and Compound A is determined by calculating the combination index (CI). CI<1 indicates synergistic effects, CI=1 indicates additive effects, and CI>1 indicates antagonistic effects. ***indicates p<0.001 compared to control.

[5] = tested on: MOLM-13 AML cells; test: Annexin V-FITC/PI apoptosis flow cytometry, MOLM-13; assay type: cell-based, human; details: MOLM-13, 24 h, clinically achievable concentrations
Protocol: as §3, §2

[6] = tested on: MV4-11 childhood AML cells; test: Viable cells (annexin V negative and PI negative) by flow cytometry, MV4-11; assay type: cell-based, human; details: MV4-11, 24 hr, clinically achievable concentrations
Protocol: as §1, with “FIG. 2B” for “FIG. 2A”, “viable MV4-11 childhood” for “viable MOLM-13”, “of MV4-11 childhood” for “of MOLM-13”, “24 h.” for “24 h”, “errors. […]” for “errors.”
as §2

[7] = tested on: MV4-11 childhood AML cells; test: Annexin V-FITC/PI apoptosis flow cytometry, MV4-11; assay type: cell-based, human; details: MV4-11, 24 h, clinically achievable concentrations
Protocol: as §3, §2

Cc1c(O)ccc2c1OC[C@@H](c1ccc(O)cc1)[C@H]2c1ccc(O)cc1 [Compound A, d-cis-3-(4-hydroxyphenyl)-4-(4-hydroxyphenyl)-8-methylchroman-7-ol]
viability (percent of viable cells vs no drug control) [1]: dose-dependent decrease in viability | apoptosis (Annexin V+ cells) [2]: high levels of apoptosis | viability (percent of viable cells vs no drug control) [3]: dose-dependent decrease in viability | apoptosis (Annexin V+ cells) [4]: high levels of apoptosis | apoptosis (Annexin V+ cells) [5]: high levels of apoptosis | viability (percent of viable cells vs no drug control) [6]: dose-dependent decrease in viability | apoptosis (Annexin V+ cells) [7]: high levels of apoptosis
